What all share (assay type): in vivo, CD2F1 mice
In one assay the test system is IL-6. The assay is described as follows: Serum cytokine profiling, C-26 model: IL-6. The settings on record: C-26 tumor-bearing mice, day 17; tumor-bearing/vehicle 230±105, tumor-free/vehicle 2.9±1.3. An excerpt:
(§1) Gastrocnemius muscles and sera were collected at day 17 post-cell injection from each treatment group (n=8/group). Muscle was submitted to Metabolon, Inc. (Durham, N.C.) for metabolomic analysis of 270 metabolic intermediates via proprietary mass spectrometry platforms. Serum was submitted to Eve Technologies (Alberta, Canada) for analysis of 32 cytokines using a mouse cytokine array (32-plex panel).
(§2) To shed light onto the mechanism by which AR-42 mediated its anti-cachectic effect, sera and gastrocnemius muscle from vehicle- or AR-42-treated tumor-free and C-26 tumor-bearing mice were used for cytokine profiling analysis and whole transcriptome shotgun sequencing (RNA-seq), respectively.

Assay [1] deals with IL-6 receptor alpha chain (IL-6Rα) mRNA. The assay is described as follows: qPCR of skeletal muscle, C-26 model: IL-6Rα. The settings on record: muscle of C-26 tumor-bearing mice; tumor-bearing/vehicle 13±1.4-fold. The method, then: (§3) Total RNA was isolated from homogenized gastrocnemius muscles (n=3/group) with TRIzol reagent (Life Technologies, Carlsbad, Calif.) and then purified using the RNAeasy Mini Kit (Qiagen, Valencia, Calif.). qRT-PCR was performed as described previously (42) by using the Bio-Rad CFX96 Real-Time PCR Detection System with iQ SYBR Green Supermix (Bio-Rad, Hercules, Calif.). RNA-seq library generation and data analysis were performed at The Ohio State University Comprehensive Cancer Center (OSUCCC) Nucleic Acid Shared Resource.
Cytokine profiles. […] AR-42 reduced IL-6 and LIF levels by 56% and 88%, respectively, in tumor-bearing mice (IL-6, 102±38 pg/ml; LIF, 3.8±1.6 pg/ml) compared to the vehicle-treated counterparts. In light of the ability of AR-42 to blunt cachexia-associated increases in IL-6, we examined the effect of AR-42 on intramuscular mRNA levels of IL-6 receptor alpha chain (IL-6Rα). […] AR-42 reduced this cachexia-induced increase by 85% (2.0±0.2-fold; n=10)(FIG. 5, lower).

For assay [2], the system named is C-26 tumor-bearing mice. The assay is described as follows: Forelimb grip strength measurement, C-26 delayed treatment. The settings on record: all drug-treated groups (start day 6, 10, 12); day 15 and 16. Here is the method: Forelimb grip strength was measured mice using a Digital Grip Strength Meter (Columbus Instruments, Columbus, Ohio). Five measurements were taken from each mouse, the average of which was designated as the mouse's grip strength.
To measure forelimb grip strength, each mouse was held by the base of its tail and lowered over the apparatus until its forepaws grasped the pull bar. The mouse was then gently pulled horizontally in a straight line away from the grip meter until the mouse released the bar, and the maximum force attained was recorded. Five measurements were taken from each mouse, the average of which was designated as the mouse's grip strength.

Assay [3] concerns C-26 tumor-bearing mice. As to the kind of experiment: C-26 colon adenocarcinoma model of cancer cachexia (body, muscle and tissue weights, tumor growth, food intake). The method, then: (§4) In one aspect, tumors were established by subcutaneous injection of C-26 cells (0.5×10^6 cells in 0.1 ml) into the right flank of male CD2F1 mice (approximately 6 weeks of age; Harlan Laboratories, Indianapolis, Ind.)(11). Tumor-bearing mice, as well as tumor-free mice serving as non-cachectic controls, were randomized into groups that were treated with either AR-42 (50 mg/kg, p.o. by gavage, every other day; Arno Therapeutics, Inc., Flemington, N.J.) or vehicle (0.5% methylcellulose (w/v) and 0.1% Tween-80 (v/v) in sterile water) starting 6 days after cell injection. To investigate the effect of delayed treatment, treatments with drug and/or vehicle were started 6, 10 and 12 days after cancer cell injection.
In another aspect, subcutaneous tumors were established in male C57BL/6 mice (approximately 6 weeks of age; Harlan) by injection of 0.5×10^6 LLC cells into the right flank. Treatment with AR-42 and vehicle was performed as for the C-26 model beginning 6 days after cell injection. In both models, body weights and food consumption were monitored daily and tumor size was measured no less than every two days. Mice were fasted for 2 hours prior to sacrifice, at which time, hind limb muscles, heart, spleen, epididymal fat, and blood were collected and the weights of the solid tissues were measured. Muscle samples were frozen in liquid nitrogen-chilled 2-methylbutane and then stored at −80° C. until analysis.
In one aspect, mice were treated orally by gavage with AR-42 (50 mg/kg) or vehicle every other day starting 6 days after injection C-26 cells, when palpable tumors had formed. […] By the study endpoint (day 15), the magnitude of the weight loss, after deducting the mass of the tumors (1 cm^3 volume=1 gram mass), reached >20% for the vehicle-treated group, and 6% for AR-42-treated mice (center). […] The AR-42-treated mice, despite their large tumor burden, were alert, responsive, active, and lacked the hunched posture and rough haircoat observed in vehicle-treated counterparts by the end point of this study (FIG. 1B).
CD2F1 and C57BL/6 mice were group-housed under conditions of constant photoperiod (12-hour light/12-hour dark), temperature and humidity with ad libitum access to water and standard diet. Mice were briefly anesthetized (isoflurane, 3-4%) during administration of drugs (AR-42, vorinostat, vehicle) by oral gavage. Food consumption was estimated by weighing food in each cage daily and dividing the daily decrease in food by the number of mice in the cage. Tumor volumes were calculated from caliper measurements using a standard formula (length×width^2×π/6).

Assay [4] deals with C-26 tumor-bearing mice. As to the kind of experiment: Delayed treatment in the C-26 model (body weight, tumor growth). Here is the method:
as §4
In those experiments, treatment was initiated early in the progression of cachexia when overt signs of wasting were undetectable. To investigate whether later initiation of AR-42 treatment remains protective against cachexia, C-26 tumor-bearing mice were treated with AR-42 (50 mg/kg, p.o., every other day) starting at 6, 10 and 12 days after tumor cell injection.

Assay [5] concerns leukemia inhibitory factor (LIF). The assay is described as follows: Serum cytokine profiling, C-26 model: LIF. The settings on record: C-26 tumor-bearing mice, day 17; tumor-bearing/vehicle 19.7±9.3, tumor-free/vehicle 1.7±1.5.
Source text: as §1, §2

The next assay relates to MuRF1 mRNA. The assay is described as follows: qPCR of gastrocnemius muscle, C-26 model: MuRF1. The settings on record: C-26 tumor-bearing mice, 15 days after tumor cell injection, tumor-bearing/vehicle 25.8±3.9-fold, mean±S.D. The method, then:
as §3
AR-42 was able to restore expression of Atrogin-1 (2.7±0.7-fold) and MuRF1 (1.1±0.2-fold) mRNA to basal levels […].

Setting [6] is: 50 mg/kg p.o. every other day, vehicle 19%.

Regarding `CC(C)[C@H](C(=O)Nc1ccc(C(=O)NO)cc1)c1ccccc1` [AR-42, (S)—N-hydroxy-4-(3-methyl-2-phenylbutanamido)benzamide], in the assay on IL-6, the “serum IL-6 level” value turned out to be 102 ± 38 pg/mL. Further, the “IL-6Rα mRNA level compared to tumor-free mice” value in assay [1] is 2.0±0.2 fold. Moreover, the “forelimb muscle strength (handgrip dynamometry) relative to vehicle-treated control” value with C-26 tumor-bearing mice [2] is reported as “helped preserve forelimb muscle strength”. Also, in the assay with C-26 tumor-bearing mice [3], the “enlarged spleens (splenomegaly) in tumor-bearing mice” value is on record as “not improved” and the “loss of cardiac tissue mass in tumor-bearing mice” value was “ameliorated”. Moreover, the “tumor growth relative to vehicle” value in the assay on C-26 tumor-bearing mice [3] (50 mg/kg p.o. every other day from day 6, 15-day study) is reported as “did not alter tumor growth”. In the assay on C-26 tumor-bearing mice [3] (50 mg/kg p.o. every other day from day 6, study endpoint day 15, vehicle group >20%), the “magnitude of the weight loss after deducting the mass of the tumors” value came out at 6%. Further, the “reduction of tibialis anterior weight relative to tumor-free control mice” value in the assay with C-26 tumor-bearing mice [3] (day 15, tumor-bearing/vehicle 10.5%) was 0.8%. The “reduction of quadriceps weight relative to tumor-free control mice” value in the assay on C-26 tumor-bearing mice [3] (day 15, tumor-bearing/vehicle 18.1%) is 5.8%. In the assay with C-26 tumor-bearing mice [3] (day 15, tumor-bearing/vehicle 20.6%), the “reduction of gastrocnemius weight relative to tumor-free control mice” value is listed as 9.6%. In the assay with C-26 tumor-bearing mice [3] (restored to a level comparable to tumor-free/AR-42 mice), the “loss of adipose tissue mass in tumor-bearing mice” value is “restored the loss of adipose tissue mass”. In addition, in the assay on C-26 tumor-bearing mice [4] (setting [6]), the “loss of body weight (tumor excluded) by day 17, treatment starting at day 6” value was found to be 6%; the “loss of body weight (tumor excluded) by day 17, treatment starting at day 10” value stood at 11%; the “loss of body weight (tumor excluded) by day 17, treatment starting at day 12” value came out at 12%. The “effect on tumor growth, delayed treatment experiment” value with C-26 tumor-bearing mice [4] (treatment from day 6, 10 or 12) is listed as “without appreciable effects”. Further, the “serum LIF level” value in assay [5] was 3.8 ± 1.6 pg/mL. Moreover, the “MuRF1 mRNA level relative to tumor-free/vehicle control” value with MuRF1 mRNA turned out to be 1.1±0.2 fold.

Source of the values: patent US11219607B2, “Methods for suppressing cancer-related cachexia” (Ohio State Innovation Foundation, priority 2013, dated 2022).
